For series [1], the target named is T1, thymidine phosphorylase (TP), recombinant E. coli TP enzyme (Escherichia coli, UniProt P07650).
T1 construct: purchased Sigma Aldrich, USA
The experiment in a line: Thymidine phosphorylase inhibition assay (spectrophotometric). Format: biochemical. The following applies: 1.5 mM thymidine, 30°C, pH 7.0, 290 nm, test compounds screened at 500 μM. Here is the method: In the current study, we have used commercially available recombinant E. coli TP enzyme, as human TP is not easily accessible.
Thymidine phosphorylase inhibition assay was carried out spectrophotometrically. Briefly, 0.058 U of TP enzyme (E.C. No. 2.4.2.4, E. coli) was incubated with 500 μM of test compounds at 30°C for 10 minutes. After that 1.5 mM of substrate thymidine was added to 96-well plate, and changes in absorbance were monitored for 10 minutes at 290 nm in microtiter plate reader (Spectramax, M5, Molecular Devices, CA, USA). Enzyme and substrate solution were prepared in 50 mM phosphate buffer of pH 7.0, while test compounds were prepared in DMSO (final concentration 4.5%).
Enzyme activity was measured under steady-state conditions by observing changes in absorbance for 10 min (at 290 nm) on microtiter plate reader (Spectra Max M5, Molecular Devices, CA, USA). Changes in absorbance upon addition of test compounds were analyzed with the SoftMax Pro 4.8 software which was purchased from Molecular Devices, CA, USA. To calculate the percent inhibition, following formula was used: % Inhibition = 100-Absorbance of test compound/Absorbance of control×100
Inhibitory potential of test compounds is represented in Figs 1–4 as IC50 value (Inhibitory concentration). […] It was calculated by measuring the effects of different concentrations of inhibitors on the degradation of thymidine. EZ-Fit, Enzyme kinetics software (purchased from Perrella Scientific, Inc., USA) was used to deduce the IC50 values.

Series [2] addresses T2, thymidine phosphorylase (TP) enzyme (Escherichia coli, UniProt P07650).
T2 construct: purchased Sigma Aldrich, USA
The experiment in a line: Mechanistic (kinetic) studies on TP, Lineweaver-Burk plot and secondary re-plot. It counts as biochemical, E. coli. The following applies: for Type of inhibition: Lineweaver-Burk plot, substrate thymidine. The protocol: In mechanistic studies, TP enzyme was incubated with different concentrations of inhibitors at 30°C for 10 min. Reaction was then initiated by adding four different concentrations of substrate, i.e. thymidine (0.1875–1.5 mM). Enzyme activity was measured under steady state conditions by measuring changes in absorbance for another 10 min at 30°C at 290 nm, on microtiter plate reader (Spectramax, M5, Molecular Devices, CA, USA). Every experiment is performed in triplicate.
Lineweaver-Burk plot was used to determine the type of inhibition, where the reciprocal of rate of the reaction were plotted against the reciprocal of substrate concentration. Dissociation constant (Ki) were determined by secondary re-plot of Lineweaver-Burk plots. Kinetic data was analysed by GraFit 7 data analysis software (purchased from Erithacus Software Limited, UK).

Series [3] has as its system mouse fibroblast (3T3) cell line. Put plainly: In vitro MTT cytotoxicity assay. It counts as cell-based. The following applies: 3T3 cells, 48 hrs incubation. Here is the method:
(§1) The reduction of MTT can only occur in metabolically active cell, so the enzyme activity is actually a measure of cell viability.
(§2) Briefly, the mouse fibroblast cells (3T3) were cultured in DMEM media containing 5% FBS, 100 IU/ mL penicillin, and 100 μg/ mL streptomycin. Cell suspension (5×10^4cells/ mL) was dispensed in flat-bottomed 96-well plates, and incubated at 37°C and with 5% CO2. After the overnight incubation, old media was aspirated and fresh media containing different concentrations of compounds (prepared in DMSO) were added, and plate was further incubated for 48 hrs. After that, MTT dye (0.5 mg/ mL) was added into each well, and the plate was further incubated for 4 hrs. Following this, DMSO (100 μL) was added into each well, and the level of MTT reduction to formazan with in the cells was calculated by taking the absorbance at 540 nm using a micro plate reader (Spectra Max plus, Molecular Devices, CA, USA).
(§3) Cellular viability was measured for 10 min, at 570 nm on microtiter plate reader. Changes in absorbance upon addition of test compounds were analyzed with the SoftMax Pro 4.8 software which was purchased from Molecular Devices, CA, USA. Percent inhibition was calculated using the formula mentioned earlier.
(§4) It was calculated by measuring the effects of different concentrations of inhibitors on the growth of cells. EZ-Fit, Enzyme kinetics software was used to deduce the IC50 values.

Series [4] is described as follows: In vitro MTT cytotoxicity assay. Format: cell-based, mouse. As to conditions: mouse, 3T3 mouse fibroblast cells, 3T3 cells, 48 hrs incubation, read-out: Cytotoxicity IC50 (μM ± SD). The protocol:
as §1, §2, §3, §4

Setting [5] is: read-out: TP Inhibition IC50 (μM ± SEM).
The mark [6] stands for this setting: thymidine 0.1875–1.5 mM, 30°C, secondary re-plot of Lineweaver-Burk plot, read-out: Ki ± SEM (dissociation constant).

What is called IC50 is the point on the concentration scale where inhibition reaches its midpoint. The term Ki denotes the dissociation constant of the complex between target and ligand, obtained from inhibition or displacement.

“Also recorded” adds a separate entry of the source. Where two headings read alike, the source gives them in different places.

T1 sequence (P07650 whole entry): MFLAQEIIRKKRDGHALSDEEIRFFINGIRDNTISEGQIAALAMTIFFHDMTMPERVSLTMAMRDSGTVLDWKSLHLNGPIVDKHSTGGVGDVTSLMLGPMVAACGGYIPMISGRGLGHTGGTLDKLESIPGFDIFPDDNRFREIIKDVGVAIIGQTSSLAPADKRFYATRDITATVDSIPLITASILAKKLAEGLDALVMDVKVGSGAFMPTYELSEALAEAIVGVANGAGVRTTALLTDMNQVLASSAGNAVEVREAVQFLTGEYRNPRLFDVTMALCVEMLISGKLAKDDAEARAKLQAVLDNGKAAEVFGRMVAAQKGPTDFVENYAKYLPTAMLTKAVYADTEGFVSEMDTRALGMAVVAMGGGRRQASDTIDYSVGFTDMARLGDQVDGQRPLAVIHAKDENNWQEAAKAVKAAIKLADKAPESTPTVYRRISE
T2 sequence (P07650 whole entry): as above

With `COc1cc2ccc(=O)oc2cc1O[C@@H]1O[C@H](CO[C@@H]2OC[C@](O)(CO)[C@H]2O)[C@@H](O)[C@H](O)[C@H]1O` [Compound 10], the IC50 in series [1] (TP Inhibition IC50 (μM ± SEM)) worked out at 295.2 ± 2 µM. Besides, in series [2], the Ki was 145 ± 0.001 µM and the Type of inhibition entry is recorded as “Uncompetitive”.
Take `O=C(O)/C=C/c1ccccc1` [Compound 15, Cinnamic acid]: the IC50 in series [1] (TP Inhibition IC50 (μM ± SEM)) was 349.7 ± 1.4 µM.
On to `N=C1CCCN1Cc1[nH]c(=O)[nH]c(=O)c1Cl` [Tipiracil, tipiracil, reference compound], for which the IC50 in series [1] (setting [5]) was found to be 0.014 ± 0.002 µM.
Turning to `C[C@@H]1C[C@@H]([C@H](O)CC2CC(=O)NC(=O)C2)C(=O)[C@@H](C)C1` [Cyclohexamide, cycloheximide, reference compound], the IC50 in series [3] (read-out: Cytotoxicity IC50 (μM ± SD)) was determined as 0.2 ± 0.1 µM.
On to `O=c1cc(-c2ccccc2)oc2cc(O)cc(O)c12` [Compound 4], for which the “TP Inhibition IC50 (μM ± SEM)” value in series [1] is “inactive”.
`COc1c2ccoc2cc2oc(=O)ccc12` [Compound 7]: the IC50 in series [1] (setting [5]) is 344.2 ± 1.2 µM.
For the molecule `CC1(C)C=Cc2c(ccc3ccc(=O)oc23)O1` [Compound 8], in series [1] (setting [5]), the IC50 was found to be 181.1 ± 0.6 µM. Further, the Type of inhibition result in series [2] is listed as “Uncompetitive”. Moreover, the inhibitory constant (Ki) in series [2] (setting [6]) is 162 ± 0.001 µM.
`COc1cc(C(=O)O)ccc1O` [Compound 17, Vanillic acid]: the “TP Inhibition IC50 (μM ± SEM)” value in series [1] is “inactive”.
For `C[C@H](Cc1ccc(O)c(O)c1)[C@@H](C)Cc1ccc(O)c(O)c1` [Compound 18, Masoprocol], the IC50 in series [1] (setting [5]) came to 44 ± 0.5 µM. For the same molecule, the Type of inhibition entry in series [2] is given as “competitive inhibitor”. The inhibition constant Ki in series [2] (setting [6]) amounted to 25.6 ± 0.008 µM. Further, in series [3], the “Cytotoxicity IC50 (μM ± SD)” value is “non-toxic; also recorded: non-cytotoxic”.
For `O=C(O)c1cc(O)c(O)c(O)c1` [Compound 16, Gallic acid], the “TP Inhibition IC50 (μM ± SEM)” value in series [1] was “inactive”.
In the case of `COc1cc2ccc(=O)oc2cc1O` [Compound 9], in series [1] (setting [5]), the IC50 is 193.4 ± 1 µM. Also, the Type of inhibition result in series [2] is reported as “Non-competitive”. Further, the Ki in series [2] (setting [6]) was 419 ± 0.001 µM.
Regarding `O=c1cc(-c2ccccc2)oc2ccccc12` [Compound 1], in series [1] (setting [5]), the IC50 is 195.1 ± 1.1 µM. The Type of inhibition entry in series [2] is on record as “Uncompetitive”. For the same molecule, the Ki in series [2] (setting [6]) was 225 ± 0.002 µM. Besides, the IC50 at 48 h in series [4] stood at 29.1 ± 0.61 µM.
Regarding `O=c1[nH]c(=O)c2cc[nH]c2[nH]1` [7-Deazaxanthine, 7-deazaxanthine, reference compound], the Type of inhibition result in series [2] was “Non-competitive”.
In the case of `COc1cc(O)c2c(=O)cc(-c3c(OC)ccc(O)c3O)oc2c1` [Compound 2], in series [1] (setting [5]), the IC50 stood at 113 µM.
Regarding `O=c1cc(-c2ccc(O)cc2)oc2cc(O)cc(O)c12` [Compound 3], the “TP Inhibition IC50 (μM ± SEM)” value in series [1] was “inactive”.
Regarding `COc1cc2c(cc1OC)-c1c(OC)c(OC)cc3c1[C@H](C2)N(C)CC3` [Compound 11, Glaucine HBr], the IC50 in series [1] (setting [5]) worked out at 238.5 ± 2.1 µM. In series [2], the Type of inhibition result is listed as “Uncompetitive”. Moreover, the Ki in series [2] (setting [6]) was determined as 180 ± 0.01 µM.
The corresponding values for `O=c1ccc2ccccc2o1` [Compound 6, coumarin] are 420 ± 6.15 µM, “Uncompetitive” and 171 ± 0.001 µM.
The corresponding values for `COc1c(O)cc2oc(-c3ccc(O)c(O)c3)c(O)c(=O)c2c1O` [Compound 5] are 76.8 ± 1.1 µM, “Mixed” and 341.1 ± 0.01 µM.
